Measurements published in PMC8070745, “FEN1 Blockade for Platinum Chemo-Sensitization and Synthetic Lethality in Epithelial Ovarian Cancers” (Cancers, 2021).

Experiments:
[1] = molecular target: T1, Recombinant human FEN1 protein (Homo sapiens, UniProt P39748); assay: radio-labeled FEN1 cleavage assay; format: biochemical; details: 3 nM FEN1, 37 °C, 10 min
T1 construct: made in house

[2] = test system: A2780cis cells; assay: Neutral COMET assay, A2780cis; format: cell-based, human; details: combination with cisplatin vs cisplatin or FEN1i monotherapy
Procedure: (1:200, ab26343). Infrared dye-labelled secondary antibodies (Li-Cor) [IRDye 800CW Donkey Anti-Rabbit IgG and IRDye 680CW Donkey Anti-Mouse IgG] were incubated at a dilution of 1:10000 for 1 h. Membranes were scanned with a LiCor Odyssey machine (700 and 800 nm) to determine protein expression. ß-Tubulin or ß-actin was used as a loading controls for the whole cell lysates. GADPH and YYI were used as loading controls to cytoplasmic and nuclear fractions, respectively. First incubation was with FEN1 antibody and then imaged. This was followed by incubation with loading control and then imaged for analysis. Bar charts show means of optical density (O.D.) ± S.D and all data is representative of at least three independent experiments. qRT-PCR analysis of FEN1 gene expre ssion: RNA was extracted using the RNeasy Mini Kit (74104, Qiagen) and quantified using a Nanodrop 2000c (Thermo Fisher Scientific). cDNA synthesis was performed using the RT2 First Strand Kit (330404, Qiagen). Real time PCR was carried out on an Applied Biosystems […] FAST cycler.
Neutral COMET assay: 1.0x10^5 cells per well were seeded in 6 well tissue culture plates and incubated at 37°C and 5% CO2 overnight. […] Fifty comets were scored per sample using Comet Assay III/IV image analysis software (Perceptive Instruments, Bury St Edmonds, UK). […]

[3] = test system: A2780cis cells; assay: Annexin V apoptosis detection, A2780cis; format: cell-based, human; details: FEN1i plus cisplatin
Procedure: Apoptosis detection: Annexin V detection kit (556547, BD Biosciences) was used to quantify apoptotic cells. Briefly, cells were trypsinized, washed with PBS and the cellular pellet was re-suspended in Anexin Binding Buffer (1×). Following, FITC Anexin V and Propidium Iodide were added to the cells. After incubation, Anexin binding Buffer (1×) was added to each tube. All the samples were analysed on a Beckman-Coulter FC500 flow cytometer. The percentage of apoptotic cells was determined (late apoptotic = FITC-Annexin V positive, PI positive early apoptotic = FITC-Annexin V positive, PI negative; live cells = FITC-Annexin V negative, PI negative) and compared for untreated and treated samples. Graphical representation and statistical analysis was performed in GraphPad Prism 7 (GraphPad, La Jolla, USA).
3D Spheroid assays: A2780_control and A2780 FEN1_ KO as well as A2780cis_control and A2780cis FEN1_ KO cells were seeded at 4500 cells/cm2 density in ultra-low attachment 6-well plates (174932, Thermo Fisher Scientific) and cultured in 3D Tumorsphere Medium (C28070, PromoCell, UK) at 37°C in a 5% CO2 atmosphere. Cells were keep in culture for 7-10 days, toping up with fresh medium every two days until spheroids structures were formed.

[4] = test system: POLβ KO A2780cis cells; assay: γH2AX analysis, POLβ KO A2780cis; format: cell-based, human; details: FEN1i-treated
Procedure: Graphical representation and statistical analysis of mean tail moment was performed in GraphPad Prism 6 (GraphPad, La Jolla, USA). All experiments were done in duplicate three times.
γH2AX FACS: For monitoring DNA double strand break accumulation by γH2AX FACS, 1.05×104 Cells/cm2 were seeded in 6-well plates and left overnight at 37°C in a 5% CO 2 atmosphere. Cisplatin (5µM) or FEN1i (10µM) was later added to cells and incubated for 24h and 48h at 37°C in a 5% CO2 atmosphere. Cells were collected by trypsinization, washed […]
with ice cold PBS and fixed in 70% ethanol for 1h at -20°C. After removal of the fixative solution by centrifugation, cells were stained with 2 µg/ml of phospho-Histone (γH2AX) Ser139 (16202A, Millipore, UK) to detect DSBs.
Cell cycle progression: Cells were treated with 20 µg/ml RNase A (12091021, Invitrogen) and then 10 µg/ml Propidium Iodide (P4170, Sigma Aldrich) was added to determine the cell cycle distribution. The samples were analysed on a Beckman-Coulter FC500 flow cytometer using a 488nm laser for excitation and emission data for PI collected using a 620nm bandpass filter (FL3) and a 525nm bandpass filter (FL1) for FITC-anti-phospho-Histone H2A.X. […]
Graphical representation and statistical analysis was performed in GraphPad Prism 7 (GraphPad, La Jolla, USA). […]

[5] = test system: FEN1 nuclear level in A2780 cells; assay: Nuclear extract western blot for FEN1, A2780; format: cell-based, human; details: 5 µM cisplatin, 24 h
Procedure: Clonogenic assay: In the clonogenic assay (colony formation assays), 32 cells/cm2 were seeded in 6-well plates and left at 37°C in a 5% CO2 atmosphere. Cisplatin (5µM) and/or FEN1i (10µM) and/or Importazole (5 µM, Selleckem, S8446 ) were added at the indicated concentrations and the plates were left at 37 °C in a 5% CO 2 atmosphere for 14 days. Later, the plates were washed with PBS, fixed and stained with a crystal violet, acetic acid and methanol solution and colonies were counted.
Nuclear and cytoplasmic extract: Cells were harvest by trypsinization, washed with PBS and centrifuged at 1000×g for 5min. […] Protein level were then quantified prior to use in western blots.
BCA protein quantification: Protein quantification was done using the Pierce BCA kit assay by Thermo Fisher Scientific. […] The plate was incubated at 37°C during 30 min in the dark and the absorbance was measured by FLUOstar OPTIMA, UK/ Infinite® F50 (UK) microplate reader at 590 nm. […]
Western Blot Analysis: Cells were harvested and lysed in RIPA buffer (R0278, Sigma) with the addition of protease cocktail inhibitor (P8348, Sigma), phosphatase inhibitor cocktail 2 (P5726, Sigma) and phosphatase inhibitor cocktail 3 (P0044, Sigma) and stored at - 20°C. Protein was quantified using BCA Protein Assay kit (23225, Thermo Fisher). […]

T1 sequence (P39748 whole entry): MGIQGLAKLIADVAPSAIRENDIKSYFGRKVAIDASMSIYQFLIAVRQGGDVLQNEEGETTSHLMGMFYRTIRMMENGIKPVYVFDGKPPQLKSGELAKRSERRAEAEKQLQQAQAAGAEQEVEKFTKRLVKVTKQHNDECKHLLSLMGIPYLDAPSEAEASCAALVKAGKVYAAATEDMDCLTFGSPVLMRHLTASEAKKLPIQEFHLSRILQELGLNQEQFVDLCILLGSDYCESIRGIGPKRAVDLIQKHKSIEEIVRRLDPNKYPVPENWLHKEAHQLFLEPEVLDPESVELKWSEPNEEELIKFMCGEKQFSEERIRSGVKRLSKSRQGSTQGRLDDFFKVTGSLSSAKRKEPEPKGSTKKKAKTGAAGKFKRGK

Row | Structure (SMILES) | FEN1 inhibition in cleavage assay [1] | DNA breaks (neutral COMET) [2] | apoptosis [3] | DSBs (γH2AX) [4] | nuclear level of FEN1 after cisplatin [5]
1 | Cc1csc2c1c(=O)n(O)c(=O)n2-c1ccccc1 [PTPD, 3-hydroxy-5-methyl-1-phenylthieno [2,3 d]pyrimidine-2,4(1H,3H)-dione] | confirmed FEN1 inhibition | substantially increased DNA breaks | accumulation of apoptotic cells | increased DSBs | 
2 | N.N.[Cl][Pt][Cl] [cisplatin] |  |  |  |  | significantly decreased
